Assay results: PubChem BioAssay (NCI)
Several values for one entry are separate records, joined by “and”; a condition that tells them apart may be missing. Equal entries are not always repeated.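 Results reflect a 48-hour exposure of cells in 96-well plates to compound at five concentrations. GI50 is the concentration that inhibits growth by half. TGI marks complete inhibition of growth.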

Tests used:
Assay in all cases: inhibition of tumour cell growth, NCI panel, 48 h
[1] = tested on: ACHN renal
[2] = tested on: LOX IMVI melanoma
[3] = tested on: MCF7 breast
[4] = tested on: NCI-H460 lung
[5] = tested on: NCI/ADR-RES ovarian
[6] = tested on: OVCAR-5 ovarian
[7] = tested on: RPMI-8226 leukemia
[8] = tested on: SW-620 colon
[9] = tested on: T-47D breast
[10] = tested on: U251 CNS

| SMILES | GI50 [1] | TGI [1] | GI50 [2] | TGI [2] | GI50 [3] | TGI [3] | GI50 [4] | TGI [4] | GI50 [5] | TGI [5] | GI50 [6] | TGI [6] | GI50 [7] | TGI [7] | GI50 [8] | TGI [8] | GI50 [9] | TGI [9] | GI50 [10] | TGI [10] |
| --- | --- | --- | --- | --- | --- | --- | --- | --- | --- | --- | --- | --- | --- | --- | --- | --- | --- | --- | --- | --- |
| O=C(/C=C/c1ccc2c(c1)OCO2)c1ccccc1 | 17.5 µM | 40.9 µM | 12.6 µM | 25.9 µM | 4.02 µM | 30 µM | 13.9 µM | 37.5 µM | 20.6 µM | 62.3 µM | 16.2 µM | 36.8 µM | 4.84 µM | > 100 µM | 3.72 µM | 14.5 µM | 15.5 µM | 39.5 µM | 5.62 µM | 19 µM |
| CC1=Cc2cc3[n-]c(cc4nc(cc5[n-]c(cc1n2)c(C)c5CCC(=O)O)C(CCC(=O)O)=C4C)cc3C.[Cu+2] | > 1 µM and 38.8 µM | > 100 µM | 28.1 µM | > 65.3 µM | 63.7 µM | > 100 µM | > 100 µM | > 100 µM | 37.2 µM | > 100 µM | > 100 µM | > 100 µM | > 1 µM and 53.9 µM | > 80 µM | > 47.7 µM | > 79.6 µM | 47.6 µM | > 100 µM | > 1 µM and 9.85 µM | > 1 µM and 23.2 µM |
| Nc1c(C(=O)Nc2cccc3ccccc23)sc2nc3c(cc12)CCCCC3 | 2.59 µM | > 50 µM | 0.909 µM | > 50 µM | 0.168 µM | > 50 µM | 1.33 µM | > 50 µM | 0.402 µM | > 50 µM | 2.48 µM | > 50 µM | 1.16 µM | > 50 µM | 0.538 µM | > 50 µM | 5.94 µM | > 50 µM | 0.998 µM | > 50 µM |
| COc1cc2c3c(n(CCCn4ccnc4)c(=O)c2cc1OC)-c1ccccc1C3=O | < 0.0127 µM | 0.0486 µM | < 0.0124 µM | 0.0385 µM | < 0.02 µM | > 43.4 µM | < 0.01 µM | 4.77 µM | 0.223 µM | 1.86 µM | 0.26 µM | 1.25 µM | < 0.0171 µM | 0.355 µM | < 0.0206 µM |  | 0.0357 µM | 0.509 µM | < 0.0122 µM | 0.57 µM |
| O=C(/C=C/C12c3ccccc3C(c3ccccc31)C1C(=O)NC(=O)C12)c1ccco1 (stereo not drawn) | 3.63 µM | 12.3 µM | 1.85 µM | 3.76 µM | 2.49 µM | 12.6 µM | 1.8 µM | 3.98 µM | 2.38 µM | 6.42 µM | 3.15 µM | 10.7 µM | 1.1 µM | 4.21 µM | 2.59 µM | 7.22 µM | 3.43 µM | 20.3 µM | 2.01 µM | 4.36 µM |
| COc1cc(N)ccc1Nc1c2ccccc2nc2ccccc12 | 3.36 µM | 14.3 µM | 5.27 µM | 35.4 µM | 2.27 µM | 13.5 µM | 1.38 µM | 7.72 µM | 15.4 µM | 45.3 µM | 15 µM | 29.9 µM | 5.27 µM | > 29.9 µM | 3.55 µM | 13.5 µM | 15.5 µM | 47.8 µM | 4.39 µM | 11.5 µM |
| Fc1ccc(Nc2ccc3cc(OCCCN4CCOCC4)ccc3n2)cc1F | 4.2 µM | 30.7 µM | 1.6 µM | 3.09 µM | 3.11 µM | 27 µM | 2.93 µM | 8.74 µM | 4.45 µM | > 100 µM | 3.02 µM | > 100 µM | 6.96 µM | > 100 µM | 2.12 µM | 4.4 µM | 6.68 µM | > 100 µM | 2.92 µM | 7.79 µM |
| Cc1ccc(-c2nc3nc(-c4ccc(Cl)cc4)nc(N4CCCNCC4)c3o2)cc1 | 1.71 µM | 3.09 µM | 1.63 µM | 3.15 µM | 1.7 µM | 3.39 µM | 1.93 µM | 3.76 µM | 2.02 µM | 3.95 µM | 1.53 µM | 2.87 µM | 2.11 µM | 4.74 µM | 1.7 µM | 3.32 µM | 1.94 µM | 4.14 µM | 1.85 µM | 3.55 µM |
| COc1cc(/C=C/C(=O)CC(=O)/C=C/c2ccc(OC(=O)CCNC34CC5CC(CC(C5)C3)C4)c(OC)c2)ccc1OC(=O)CCNC12CC3CC(CC(C3)C1)C2 | 11 µM | 23.6 µM | 1.96 µM | 4.14 µM | 2.36 µM | 9.89 µM | 2.5 µM | 6.33 µM | 8 µM | 49.9 µM | 4.34 µM | 16.8 µM | 2.1 µM | 6.01 µM | 2.43 µM | 6.03 µM | 5.89 µM | 59.8 µM | 3.39 µM | 12 µM |
| O=C(c1cccs1)c1c(C(F)(F)F)n([O-])c2cc(C(F)(F)F)ccc2[n+]1=O | 0.159 µM | 0.303 µM | 0.0714 µM | 0.17 µM | 0.187 µM | 0.41 µM | 0.198 µM | 0.512 µM | 0.216 µM | 0.585 µM | 0.432 µM | 1.37 µM | 0.211 µM | 0.59 µM | 0.14 µM | 0.304 µM | 0.154 µM | 0.4 µM | 0.153 µM | 0.288 µM |
| Cc1c(N(C(=O)c2cc(-c3cc(Cl)ccc3C(=O)N3Cc4ccccc4C[C@H]3CN3CCOCC3)n(C)c2C)c2ccc(O)cc2)cc(C#N)n1C | 23.6 µM | > 100 µM | 14.6 µM | > 100 µM | 23.5 µM | > 100 µM | 31.3 µM | > 100 µM | 50.6 µM | > 100 µM | 44.9 µM | > 100 µM | 7.32 µM | > 100 µM | 34.4 µM | > 100 µM | 7.09 µM | > 100 µM | 18.9 µM | > 100 µM |
| CNC(=O)c1ccc(Nc2nc(OC3CCCC3)c3c(-c4ccc5nc(C)oc5c4)c[nH]c3n2)c(OC)c1 | 0.438 µM | > 100 µM | 0.381 µM | > 100 µM | 0.252 µM | > 100 µM | 0.119 µM | > 100 µM | 1.71 µM | > 100 µM | 64.2 µM | > 100 µM | 0.481 µM | > 20.4 µM | 0.121 µM | > 100 µM | 0.907 µM | > 100 µM | 15.3 µM | > 100 µM |
| CC(=O)O[C@H]1C(=O)[C@@]2(C)[C@H]([C@H](OC(=O)c3ccccc3)[C@]3(O)C[C@H](OC(=O)[C@H](OC(=O)CCC(=O)OC4CCC(S/N=C(N)/N=C(\N)N(C)C)CC4)[C@@H](NC(=O)c4ccccc4)c4ccccc4)C(C)=C1C3(C)C)[C@]1(OC(C)=O)CO[C@@H]1C[C@@H]2O (stereo partly drawn) | 0.11 µM | > 50 µM | 0.00748 µM | > 50 µM | < 0.005 µM | > 50 µM | 0.0069 µM | > 27.7 µM | 1.82 µM | > 24.4 µM | 0.0272 µM | > 50 µM | 0.00605 µM | > 43.5 µM | 0.0119 µM | > 50 µM | 0.0139 µM | > 50 µM | 0.00815 µM | > 50 µM |
| CCC[CH2][Sn]([CH2]CCC)([O]C(=O)c1cccc(F)c1F)[O][Sn]([CH2]CCC)([CH2]CCC)[O]C(=O)c1cccc(F)c1F | 0.214 µM | 0.512 µM | 0.111 µM | 0.25 µM | 0.0463 µM | 0.2 µM | 1.3 µM | 2.62 µM | 0.3 µM | 1.32 µM | 1.47 µM | 2.9 µM | 0.0288 µM |  | 0.103 µM | 0.239 µM | 0.0189 µM | 0.186 µM | 0.147 µM | 0.449 µM |
| c1cncc(-c2cc(-c3cc(-c4cccnc4)n[nH]3)[nH]n2)c1 |  | > 100 µM |  | > 100 µM |  | > 100 µM |  | > 100 µM |  | > 100 µM |  | > 100 µM |  | > 100 µM |  | > 100 µM |  | > 100 µM |  | > 100 µM |
| CCOC(=O)c1ccc2[nH]c(Cc3[nH]c4ccc(C(=O)OCC)cc4c3C)c(C)c2c1 | 2.28 µM | 15.8 µM | 0.384 µM | 5.72 µM | 1.98 µM | 22.6 µM | 0.167 µM | 6.44 µM | 2.52 µM | 18.5 µM | 8.94 µM | 53.8 µM | 2.66 µM | 35.6 µM | 1.41 µM | 15.6 µM | 4.94 µM | 23.9 µM | 0.473 µM | 7.97 µM |
| OCC1OC(O)C(N=Cc2ccc3c(c2)OCO3)C(O)C1O (stereo not drawn) |  | > 100 µM |  | > 100 µM |  | > 100 µM |  | > 100 µM |  | > 100 µM |  | > 100 µM |  | > 100 µM |  | > 100 µM |  | > 100 µM |  | > 100 µM |
| C[C@]12CC[C@H]3[C@@H](CC=C4C[C@@H](O)CC[C@@]43C)[C@@H]1C/C(=C\c1cccc(OCCCn3ccnc3)c1)[C@@H]2O | 13.9 µM | 31.3 µM | 15.7 µM | 39.6 µM | 14.5 µM | 34.2 µM | 13.8 µM | 31.8 µM | 20.4 µM | 99.7 µM | 17.2 µM | 32.9 µM | 5.32 µM | 25 µM | 10.6 µM | 26.8 µM | 6.4 µM | 30.1 µM | 11.8 µM | 24.7 µM |
